Laboratory results published in US8273527B2, “Viral variants” (priority 1999, dated 2012).

Assays:
[1] = test system: HBV; conditions: in vitro; cited from earlier work
[2] = test system: duck HBV virus; conditions: oral, in vivo; cited from earlier work
[3] = test system: HBV; test: FCV prophylaxis liver transplantation trial (response pre-OLT, HBV recurrence post-OLT); assay type: in vivo, patients
Text: The clinical details of the FCV prophylaxis liver transplantation protocol as previously described (19). Briefly, the aim of the study was to compare the safety and efficacy of oral FCV and IV penciclovir in reducing the risk of hepatitis B re-infection post-OLT in liver transplant patients. The study design was a multicentre, randomized, part double-blind, part placebo controlled trial in patients with end stage liver disease requiring OLT. Patients with HBV DNA levels more than 90 pg/ml at study entry (by hybridization) [high replicators] were treated with both FCV and HBIG post-OLT. These high replicators were treated with FCV (500 mg tds) to reduce HBV DNA levels prior to OLT. Famciclovir treatment was continued for 12 months post-OLT. An untreated control group of patients with HBV DNA levels less than 90 pg/ml [low replicators] at study entry were treated with HBIG alone post-OLT. In the original study, thirty six patients underwent OLT, and of these the clinical and virological outcome of twenty-two of the FCV treated patients has recently been presented (17 Manns).
Twenty six patients who had HBV levels more than 90 pg/ml at study entry (high HBV replicator [HR]) were treated with FCV pre-OLT and those patients who responded were then treated with HBIG plus FCV post-OLT. […]

[4] = test system: HBV; conditions: one patient with severe hepatitis B following OLT; cited from earlier work
[5] = test system: duck HBV; conditions: in vitro; cited from earlier work
[6] = molecular target: HBV DNA polymerase-reverse transcriptase (Hepatitis B virus genotype D subtype ayw, UniProt P03156); conditions: in vitro; cited from earlier work
HBV DNA polymerase-reverse transcriptase, sequence (P03156 whole entry): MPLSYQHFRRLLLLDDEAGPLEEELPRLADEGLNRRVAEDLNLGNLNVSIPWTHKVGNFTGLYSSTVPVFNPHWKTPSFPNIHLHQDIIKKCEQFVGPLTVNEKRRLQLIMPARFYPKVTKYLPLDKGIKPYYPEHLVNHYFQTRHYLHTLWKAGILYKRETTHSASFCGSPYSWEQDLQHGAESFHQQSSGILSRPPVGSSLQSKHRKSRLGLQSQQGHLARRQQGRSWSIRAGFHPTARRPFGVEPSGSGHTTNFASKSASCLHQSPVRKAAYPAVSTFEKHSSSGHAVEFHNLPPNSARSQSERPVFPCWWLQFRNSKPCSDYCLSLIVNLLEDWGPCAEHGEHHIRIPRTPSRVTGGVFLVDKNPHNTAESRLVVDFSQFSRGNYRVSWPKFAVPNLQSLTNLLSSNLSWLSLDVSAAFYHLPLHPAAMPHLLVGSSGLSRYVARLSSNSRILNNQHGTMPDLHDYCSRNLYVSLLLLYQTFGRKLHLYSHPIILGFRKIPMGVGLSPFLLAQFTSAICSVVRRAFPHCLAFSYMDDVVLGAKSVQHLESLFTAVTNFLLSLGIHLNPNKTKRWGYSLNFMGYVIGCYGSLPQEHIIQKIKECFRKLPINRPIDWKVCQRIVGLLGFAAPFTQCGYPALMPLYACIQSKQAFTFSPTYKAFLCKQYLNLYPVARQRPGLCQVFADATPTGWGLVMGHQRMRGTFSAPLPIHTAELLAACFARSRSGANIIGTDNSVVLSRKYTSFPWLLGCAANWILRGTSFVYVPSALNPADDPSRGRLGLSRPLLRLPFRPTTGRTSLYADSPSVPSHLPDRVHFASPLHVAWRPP

Nc1ncnc2c1ncn2CCOCP(=O)(O)O [Adefovir]
anti-HBV activity [1]: effective anti-HBV activity

CC(=O)OCC(CCn1cnc2cnc(N)nc21)COC(C)=O [FCV, famciclovir]
inhibition of intra-hepatic replication of duck HBV virus [2]: inhibit | patients who responded to FCV ([3]; of 26 high HBV replicators (HBV more than 90 pg/ml at study entry) treated with FCV pre-OLT): 19 patients | patients who did not initially respond to FCV ([3]; of the initial 26 high HBV replicators treated with FCV pre-OLT): 6 patients | effect on HBV DNA replication [4]: reduce HBV DNA replication

Nc1nc2c(ncn2CCC(CO)CO)c(=O)[nH]1 [Penciclovir, penciclovir]
inhibitory activity against duck HBV DNA synthesis [5]: potent inhibitory activity | inhibition of HBV DNA polymerase-reverse transcriptase activity [6]: inhibit
